Measurements taken from PubChem BioAssay AID330 (DTP/NCI, 2004).
Values joined by “and” are separate entries in the source; they are usually repeats but may differ in a detail not shown here. Equal values may be shown once. Inconclusive results and toxic doses are left out.

Test system: P388 leukemia ip, CD2F1 mice, survival T/C
Assay: NCI In Vivo Anticancer Drug Screen. Data for tumor model P388 Leukemia (intraperitoneal) in CD2F1 (CDF1) mice
Details: endpoint: median survival time, higher = longer survival
Outline: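 Mice carrying the transplanted tumor received test compound or vehicle. Survival was recorded in each group, and the value is the treated-group measurement divided by that of the vehicle-treated control group.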

[1] = dose: 12.5 mg/kg/injection, schedule: Q01DX009 (ip), vehicle: saline with Tween-80
[2] = dose: 25.0 mg/kg/injection, schedule: Q01DX009 (ip), vehicle: saline with Tween-80
[3] = dose: 50.0 mg/kg/injection, schedule: Q01DX009 (ip), vehicle: saline with Tween-80
[4] = dose: 60.0 mg/kg/injection, schedule: Q01DX005 (ip), vehicle: saline with Tween-80
[5] = dose: 120.0 mg/kg/injection, schedule: Q01DX005 (ip), vehicle: saline with Tween-80
[6] = dose: 240.0 mg/kg/injection, schedule: Q01DX005 (ip), vehicle: saline with Tween-80
[7] = dose: 100.0 mg/kg/injection, schedule: Q01DX009 (ip), vehicle: saline with Tween-80
[8] = dose: 200.0 mg/kg/injection, schedule: Q01DX009 (ip), vehicle: saline with Tween-80
[9] = dose: 100.0 mg/kg/injection, schedule: Q04DX003 (ip), vehicle: Klucel (hydroxypropylcellulose) (HPC)
[10] = dose: 50.0 mg/kg/injection, schedule: Q01DX005 (ip), vehicle: saline with Tween-80
[11] = dose: 100.0 mg/kg/injection, schedule: Q01DX005 (ip), vehicle: saline with Tween-80
[12] = dose: 200.0 mg/kg/injection, schedule: Q01DX005 (ip), vehicle: saline with Tween-80
[13] = dose: 50.0 mg/kg/injection, schedule: Q01DX005 (ip), vehicle: Klucel (hydroxypropylcellulose) (HPC)
[14] = dose: 100.0 mg/kg/injection, schedule: Q01DX005 (ip), vehicle: Klucel (hydroxypropylcellulose) (HPC)
[15] = dose: 200.0 mg/kg/injection, schedule: Q01DX005 (ip), vehicle: Klucel (hydroxypropylcellulose) (HPC)
[16] = dose: 12.5 mg/kg/injection, schedule: Q01DX009 (ip), vehicle: saline
[17] = dose: 25.0 mg/kg/injection, schedule: Q01DX009 (ip), vehicle: saline
[18] = dose: 50.0 mg/kg/injection, schedule: Q01DX009 (ip), vehicle: saline
[19] = dose: 100.0 mg/kg/injection, schedule: Q01DX009 (ip), vehicle: saline

c1ccc2c(c1)cc1c3nncn3ncn21
T/C [1]: 100 % of control | T/C [2]: 92 % of control | T/C [3]: 93 % of control

CC(C)c1ccc(/C=C(/NC(=O)c2ccccc2)c2nc3ccccc3s2)cc1
T/C [4]: 104 % of control | T/C [5]: 111 % of control | T/C [6]: 118 % of control

S=C(c1c(Cl)cccc1Cl)N1CN2CCCN(C2)C1
T/C [3]: 111 % of control | T/C [7]: 98 % of control | T/C [8]: 101 % of control

CN1CCN(c2cc3nc[nH]c(=O)c3cc2[N+](=O)[O-])CC1
T/C (dose: 50.0 mg/kg/injection, schedule: Q04DX003 (ip), vehicle: Klucel (hydroxypropylcellulose) (HPC)): 99 % of control | T/C [9]: 104 % of control

CCCC1(CC)CNC(=O)NC1=O (stereo not drawn)
T/C [10]: 100 % of control | T/C [11]: 93 % of control | T/C [12]: 99 % of control

O=C1C(O)=C(O)C(=O)c2ccccc21
T/C (dose: 50.0 mg/kg/injection, schedule: Q01DX009 (ip), vehicle: Klucel (hydroxypropylcellulose) (HPC)): 90 % of control

Cc1cc(=NCCCN(C)C)c2ccc3c(ccc4c(=NCCCN(C)C)cc(C)n(O)c43)c2n1O
T/C (dose: 6.25 mg/kg/injection, schedule: Q01DX009 (ip), vehicle: water): 106 % of control and 111 % of control | T/C (dose: 12.5 mg/kg/injection, schedule: Q01DX009 (ip), vehicle: distilled water + alcohol): 102 % of control | T/C (dose: 12.5 mg/kg/injection, schedule: Q01DX009 (ip), vehicle: water): 100 % of control and 103 % of control and 109 % of control | T/C (dose: 25.0 mg/kg/injection, schedule: Q01DX009 (ip), vehicle: distilled water + alcohol): 102 % of control | T/C (dose: 25.0 mg/kg/injection, schedule: Q01DX009 (ip), vehicle: water): 108 % of control and 116 % of control | T/C (dose: 50.0 mg/kg/injection, schedule: Q01DX009 (ip), vehicle: distilled water + alcohol): 105 % of control

O=C1NC(=O)C(Cc2ccc(N(CCO)CCO)cc2)(c2ccccc2)N1 (stereo not drawn)
T/C [13]: 108 % of control and 109 % of control and 116 % of control | T/C [14]: 111 % of control and 121 % of control | T/C [15]: 117 % of control and 120 % of control | T/C (dose: 400.0 mg/kg/injection, schedule: Q01DX005 (ip), vehicle: Klucel (hydroxypropylcellulose) (HPC)): 110 % of control and 124 % of control

CCOC(=O)Nc1ccc(Cl)cc1C(=O)c1ccccc1
T/C (dose: 45.0 mg/kg/injection, schedule: Q01DX009 (ip), vehicle: saline with Tween-80): 102 % of control | T/C (dose: 90.0 mg/kg/injection, schedule: Q01DX009 (ip), vehicle: saline with Tween-80): 100 % of control | T/C (dose: 180.0 mg/kg/injection, schedule: Q01DX009 (ip), vehicle: saline with Tween-80): 96 % of control

C=C(C)C12CC(C)C34OC(/C=C/C=C/CCCCC)(OC1C3C1OC1(CO)C(O)C1(O)C(=O)C(C)=CC14)O2 (stereo not drawn)
T/C (dose: 0.03 mg/kg/injection, schedule: Q01DX009 (ip), vehicle: distilled water + alcohol): 96 % of control | T/C (dose: 0.06 mg/kg/injection, schedule: Q01DX009 (ip), vehicle: distilled water + alcohol): 102 % of control | T/C (dose: 0.12 mg/kg/injection, schedule: Q01DX009 (ip), vehicle: distilled water + alcohol): 98 % of control | T/C (dose: 0.25 mg/kg/injection, schedule: Q01DX009 (ip), vehicle: distilled water + alcohol): 106 % of control | T/C (dose: 0.5 mg/kg/injection, schedule: Q01DX009 (ip), vehicle: distilled water + alcohol): 98 % of control | T/C (dose: 1.0 mg/kg/injection, schedule: Q01DX009 (ip), vehicle: distilled water + alcohol): 108 % of control

NC(=O)C(CCCN=C(N)N)NC(=O)c1ccccc1 (stereo not drawn)
T/C (dose: 50.0 mg/kg/injection, schedule: Q01DX005 (ip), vehicle: saline): 105 % of control | T/C (dose: 100.0 mg/kg/injection, schedule: Q01DX005 (ip), vehicle: saline): 99 % of control | T/C (dose: 200.0 mg/kg/injection, schedule: Q01DX005 (ip), vehicle: saline): 105 % of control

COc1ccc2c(c1)[C@H]1[C@H]([C@H]3O[C@@H]1c1ccccc13)S(=O)N2 (stereo partly drawn)
T/C [13]: 95 % of control | T/C [14]: 96 % of control | T/C [15]: 92 % of control

COC1C=CC23c4cc5c(cc4C(O)OC2CN(C)C3C1)OCO5 (stereo not drawn)
T/C [16]: 106 % of control | T/C [17]: 107 % of control | T/C [18]: 115 % of control | T/C [19]: 94 % of control

COc1ccc2c(c1)CCc1c-2nc[nH]c1=O
T/C (dose: 100.0 mg/kg/injection, schedule: Q04DX002 (ip), vehicle: saline with Tween-80): 103 % of control | T/C (dose: 200.0 mg/kg/injection, schedule: Q04DX002 (ip), vehicle: saline with Tween-80): 96 % of control | T/C (dose: 400.0 mg/kg/injection, schedule: Q04DX002 (ip), vehicle: saline with Tween-80): 96 % of control

O=c1[nH][nH]c(=O)c2[nH]cnc12
T/C (dose: 50.0 mg/kg/injection, schedule: Q04DX003 (ip), vehicle: saline with Tween-80): 98 % of control | T/C (dose: 100.0 mg/kg/injection, schedule: Q04DX003 (ip), vehicle: saline with Tween-80): 100 % of control | T/C (dose: 200.0 mg/kg/injection, schedule: Q04DX003 (ip), vehicle: saline with Tween-80): 100 % of control | T/C (dose: 400.0 mg/kg/injection, schedule: Q04DX003 (ip), vehicle: saline with Tween-80): 106 % of control

O=c1[nH]cnc2c1cnn2CN1CCOCC1
T/C (dose: 25.0 mg/kg/injection, schedule: Q01DX005 (ip), vehicle: Klucel (hydroxypropylcellulose) (HPC)): 106 % of control | T/C [13]: 117 % of control and 90 % of control | T/C [14]: 120 % of control

O=C(CCN1CC1)Nc1cccc(NC(=O)CCN2CC2)c1
T/C (dose: 1.8 mg/kg/injection, schedule: Q01DX009 (ip), vehicle: Klucel (hydroxypropylcellulose) (HPC)): 176 % of control | T/C (dose: 2.5 mg/kg/injection, schedule: Q01DX009 (ip), vehicle: Klucel (hydroxypropylcellulose) (HPC)): 158 % of control and 169 % of control and 185 % of control | T/C (dose: 3.0 mg/kg/injection, schedule: Q01DX009 (ip), vehicle: Klucel (hydroxypropylcellulose) (HPC)): 174 % of control | T/C (dose: 5.0 mg/kg/injection, schedule: Q01DX009 (ip), vehicle: Klucel (hydroxypropylcellulose) (HPC)): 167 % of control and 191 % of control and 209 % of control | T/C (dose: 6.0 mg/kg/injection, schedule: Q01DX009 (ip), vehicle: Klucel (hydroxypropylcellulose) (HPC)): 186 % of control | T/C (dose: 15.0 mg/kg/injection, schedule: Q01DX009 (ip), vehicle: Klucel (hydroxypropylcellulose) (HPC)): 88 % of control | T/C (dose: 20.0 mg/kg/injection, schedule: Q01DX009 (ip), vehicle: Klucel (hydroxypropylcellulose) (HPC)): 116 % of control

O=C(NC(=S)c1cccc2ccccc12)Nc1ccc(Cl)c(Cl)c1
T/C [1]: 89 % of control | T/C [2]: 87 % of control | T/C [3]: 103 % of control

C#CCOc1ccccc1C(=O)NNc1ccc([N+](=O)[O-])cc1[N+](=O)[O-]
T/C [3]: 97 % of control | T/C [7]: 87 % of control

C=C1CC2(CC3CCC2(C)C3(C)C)OC1=O (stereo not drawn)
T/C (dose: 100.0 mg/kg/injection, schedule: Q01DX001 (ip), vehicle: saline): 98 % of control | T/C (dose: 200.0 mg/kg/injection, schedule: Q01DX001 (ip), vehicle: saline): 99 % of control | T/C (dose: 400.0 mg/kg/injection, schedule: Q01DX001 (ip), vehicle: saline): 99 % of control

COC1=CC(=O)C(=O)C(C(C)(C)C)=C1
T/C (dose: 15.0 mg/kg/injection, schedule: Q01DX005 (ip), vehicle: Klucel (hydroxypropylcellulose) (HPC)): 104 % of control | T/C (dose: 30.0 mg/kg/injection, schedule: Q01DX005 (ip), vehicle: Klucel (hydroxypropylcellulose) (HPC)): 86 % of control

O=S(=O)(CC(O)C(Cl)(Cl)Cl)NNc1ccccc1 (stereo not drawn)
T/C [18]: 99 % of control | T/C [19]: 112 % of control

CC(C)(C)CC(C)(C)c1ccc(OCc2ccc(Cl)c(Cl)c2)cc1
T/C [3]: 100 % of control | T/C [7]: 100 % of control | T/C [8]: 91 % of control

CC(O)c1cccc(C(C)(C)O)c1Sc1c(C(C)(C)O)cccc1C(C)(C)O (stereo not drawn)
T/C [9]: 99 % of control | T/C (dose: 200.0 mg/kg/injection, schedule: Q04DX003 (ip), vehicle: Klucel (hydroxypropylcellulose) (HPC)): 98 % of control | T/C (dose: 400.0 mg/kg/injection, schedule: Q04DX003 (ip), vehicle: Klucel (hydroxypropylcellulose) (HPC)): 97 % of control

Cc1ccc(C(=S)N=P(c2ccccc2)(c2ccccc2)c2ccccc2)cc1
T/C [10]: 99 % of control | T/C [11]: 107 % of control | T/C [12]: 100 % of control

C[N+]1(N)CCOCC1
T/C [16]: 97 % of control | T/C [17]: 100 % of control | T/C [18]: 92 % of control

COc1ccc(S(=O)(=O)c2coc3ccccc3c2=O)cc1
T/C [4]: 110 % of control | T/C [5]: 103 % of control | T/C [6]: 96 % of control
